Patent publication US6359015B1, “Method for antagonizing inhibition effects of alcohol on cell adhesion” (The United States of America as represented by the …, priority 2000, dated 2002)
“Also recorded” adds a separate entry of the source. Read-outs that look alike come from different tables or passages of the source.

T1: GIRK ¼ potassium channel (Homo sapiens, UniProt P48544+P48549)
T1 sequence (P48549 1-501): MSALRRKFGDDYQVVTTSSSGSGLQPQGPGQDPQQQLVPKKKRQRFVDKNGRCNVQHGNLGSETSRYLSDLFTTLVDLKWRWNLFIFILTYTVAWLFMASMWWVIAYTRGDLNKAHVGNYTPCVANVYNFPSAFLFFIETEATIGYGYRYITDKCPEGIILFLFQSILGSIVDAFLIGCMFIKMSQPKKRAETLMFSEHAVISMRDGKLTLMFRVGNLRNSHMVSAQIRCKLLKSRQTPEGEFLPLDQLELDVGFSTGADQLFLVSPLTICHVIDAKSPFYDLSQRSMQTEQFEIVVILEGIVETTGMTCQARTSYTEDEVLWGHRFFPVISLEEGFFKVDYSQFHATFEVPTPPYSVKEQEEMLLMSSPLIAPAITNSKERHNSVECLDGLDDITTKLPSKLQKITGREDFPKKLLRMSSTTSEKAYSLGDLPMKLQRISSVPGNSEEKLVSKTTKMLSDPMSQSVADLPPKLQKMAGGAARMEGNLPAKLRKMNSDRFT
T1 sequence (P48544 1-419): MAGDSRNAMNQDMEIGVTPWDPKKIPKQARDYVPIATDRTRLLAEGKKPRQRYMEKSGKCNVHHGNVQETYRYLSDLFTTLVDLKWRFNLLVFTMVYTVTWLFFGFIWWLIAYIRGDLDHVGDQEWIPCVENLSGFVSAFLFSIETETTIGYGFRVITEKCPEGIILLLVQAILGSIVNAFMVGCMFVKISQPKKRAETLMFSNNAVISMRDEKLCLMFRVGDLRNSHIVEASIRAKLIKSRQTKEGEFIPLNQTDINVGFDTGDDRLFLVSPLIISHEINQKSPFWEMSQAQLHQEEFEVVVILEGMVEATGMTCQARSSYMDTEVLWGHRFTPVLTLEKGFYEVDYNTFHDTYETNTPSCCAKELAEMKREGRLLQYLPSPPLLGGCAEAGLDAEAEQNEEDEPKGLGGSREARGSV

B1: BMP-7: growth factor that induces expression of L1 in neural cells (protein, UniProt P18075 293-431, looked up)
Bone morphogenetic protein 7: STGSKQRSQNRSKTPKNQEALRMANVAENSSSDQRQACKKHELYVSFRDLGWQDWIIAPEGYAAYYCEGECAFPLNSYMNATNHAIVQTLVHFINPETVPKPCCAPTQLNAISVLYFDDSSNVILKKYRNMVVRACGCH

Assays:
[1] = published or calculated from molecular weight and density at 20° C.; cited from earlier work
[2] = tested on: BMP-7 treated NG108-15 neuroblastoma×glioma cells; assay: Cell-cell adhesion (short-term aggregation) assay in BMP-7 treated NG108-15 cells; format: cell-based, rat and mouse; conditions: for Inhibition of cell-cell adhesion (in words): both cellular systems (NG108-15 + BMP-7 and L1-expressing NIH/3T3); for Inhibition of cell-cell adhesion at higher concentrations (in words): concentrations 5-10 fold higher than those reported in Table 1
Procedure: NIH/3T3 cells were cultured in Dulbecco's minimum Eagle medium (DMEM) (Life Technologies, Gaithersburg, Md.) supplemented with 10% normal calf serum (Intergen, Purchase, N.Y.) and 400 μg/ml G418 (Life Technologies). NG108-15 neuroblastoma×glioma cells (passages 21 to 30) were plated in serum-free, defined medium (Reference 16). At the start of the morphogenetic and cell adhesion assays, serum-free medium containing BMP-7 (Creative BioMolecules, Hopkinton, Ma.) (1-40 ng/ml, final) was added daily to the NG108-15 cells. Both cell lines were cultured at 37° C., in an atmosphere of 90% air and 10% CO2. Three NIH/3T3 subclones were utilized in these studies: 2B2-L1, 2A2-L1 and Vec-1A5. The 2B2-L1 and 2A2-L1 cell lines are subclones derived from a stable transfection of NIH/3T3 cells with the human L1 cDNA, and Vec-1A5 is a subclone from a transfection with the empty expression vector (Reference 12).
Cells were cultured and cell adhesion assays were performed in the absence and presence of the alcohols listed below in Table 1. The concentrations of alcohols used in the adhesion assays were calculated to produce membrane concentrations equivalent to 50-100 mM ethanol. Membrane/buffer partition coefficients (Pm/b) were obtained or were calculated from published octanol/water partition coefficients (Reference 15). Molar volumes were obtained from published sources (References 15) or were calculated from molecular weights and densities at 20° C.
(§1) Cell-cell adhesion was measured using a modified short-term aggregation assay of sub-confluent cells (Reference 12). Cells were detached by gentle agitation, mechanically dissociated to obtain a single-cell suspension, and diluted in PBS supplemented with 0.1 mg/ml DNase to 350,000 cells/ml for the NIH/3T3 cells, and 250,000 cells/ml for the NG108-15 cells. One ml of the cell suspension was added per well (4.5 cm^2) of a 12-well plate. After addition of the alcohols, the cells were gently mixed and mechanically shaken for 30 minutes at room temperature on an orbital shaker set at 60 to 80 rpm. Cells were viewed at a final magnification of 200×, and each well was scored for single and adherent cells in five or six microscopic fields of view. We counted approximately 100 cells per field of view and 600 cells per well. The percentage of adherent cells was calculated for each microscopic field of view and averaged. To calculate the magnitude of ethanol inhibition, we subtracted the values for cell adhesion with the Vec-1A5 cells from those of the 2B2-L1 or 2A2-L1 cell lines. Similarly, the values for cell adhesion in NG108-15 cells cultured in serum-free medium were subtracted from those of NG108-15 cells treated with BMP-7.
We tested the effects of a series of alcohols on cell-cell adhesion in two well-characterized model systems. NG108-15 cells were incubated for 48 hours in a serum-free medium supplemented with 10-20 ng/ml BMP-7 to induce L1 and N-CAM gene expression (Reference 10). Parallel experiments were performed using two ethanol-sensitive NIH/3T3 cell lines transfected with human L1 (2B2-L1 and 2A2-L1) (Reference 12) and a NIH/3T3 cell line transfected with the empty expression vector (1A5-V).

[3] = from published source or octanol/water partition coefficient divided by 5; cited from earlier work
[4] = tested on: NIH/3T3-L1 (2B2-L1) cells; assay: Antagonism of 1-butanol inhibition of cell adhesion in NIH/3T3-L1 (2B2-L1) cells; format: cell-based, rat
Procedure: as §1, with “BMP-7. […]” for “BMP-7.”

NG108-15 cells = assay: BMP-7 morphogenesis (cell clusters) in NG108-15 cells; format: cell-based, rat and mouse; conditions: for Antagonism of ethanol inhibition of BMP-7 morphogenesis: 50 mM ethanol and 0.05 mM 1-octanol, 3 days
Procedure: NG108-15 cells were plated from suspensions of single cells at a density of 50,000 cells/well in poly-D-lysine-coated, 6-well plated containing serum-free medium in the absence or presence of BMP-7, as described (References 17-18). […] Control cultures were treated similarly. The media for all cells was replaced daily following the addition of ethanol. […] A cell cluster was defined as a group of three or more cells that adhered to each other along at least one quarter of their cell bodies (Reference 19). The percentage of cells in clusters was calculated by dividing the number of cells present in clusters by the total number of cells (150 to 200) in each field. Values obtained for each field of a treatment group were then averaged.
Treatment with BMP-7 for 48 hours causes NG108-15 cells to grow in clusters of adherent cells (BMP-7 morphogenesis), rather than as predominantly single cells.
The percentage of cells in clusters of three or more cells was scored from two separate fields viewed under 200×magnification.

[5] = tested on: BMP-7 treated NG108-15 cells; assay: Antagonism of short-chain alcohol inhibition of cell adhesion in BMP-7 treated NG108-15 cells; format: cell-based, rat and mouse; conditions: for Antagonism of inhibition of cell-cell adhesion by 1-butanol (in words): 2 mM 1-butanol, BMP-7 treated NG108-15 cells; for Antagonism of the effects of 3-methyl-1-butanol on cell adhesion (in words): 3 mM 3-methyl-1-butanol; for Antagonism of the effects of ethanol on cell adhesion (in words): 100 mM ethanol
Procedure: as §1

GIRK ¼ potassium channel = target: T1, GIRK ¼ potassium channel; conditions: Reference 20; cited from earlier work
[6] = NG108-15, read-out: IC50 for antagonism of 1-butanol (and ethanol) inhibition of cell-cell adhesion

| Molecule | Vm molar volume [1] [mL/mol] | Inhibition of cell-cell adhesion (in words) [2] | P(m/b) membrane/buffer partition coefficient [3] | Inhibition of cell-cell adhesion at higher concentrations (in words) [2] | further results |
| --- | --- | --- | --- | --- | --- |
| CC(C)c1cccc(C(C)C)c1O [propofol] | 86 | did not inhibit | 1.00 | – | – |
| 1-butanol | – | maximally inhibited | – | – | 1-butanol inhibition of cell-cell adhesion, control ([4]; 2B2L1 cells, no 1-octanol pretreatment, washed): 43.6±3.0% |
| CCCC(C)O (centres unmarked) [2-pentanol] | 109 | abolished activity | 4.38 | – | – |
| CCCC(C)(C)O [2-methyl-2-pentanol] | 122 | – | 5.20 | – | – |
| CC(O)C1CC1 (centres unmarked) [cyclopropyl-ethanol, cyclopropylethanol] | 91 | abolished activity | 0.83 | inactivity | – |
| OCC1CC1 [cyclopropyl methanol] | 71 | active | 0.71 | – | – |
| CC(C)CCCO [4-methyl-1-pentanol] | 126 | – | 9.36 | inactivity | – |
| CCCCCCCCO [1-octanol] | 158 | not inhibited | 189 | inactivity | Mechanism of antagonism of 1-butanol inhibition (in words) ([4]; 1-octanol 5 and 50 μM, 2B2-L1 cells): complete, reversible, and non-competitive; also recorded: reduced the maximal effectiveness; Antagonism of ethanol inhibition of BMP-7 morphogenesis (NG108-15 cells): antagonized; Antagonism of ethanol inhibition of BMP-7 morphogenesis (NG108-15 cells; listed as Octanol): completely abolished; Antagonism of inhibition of cell-cell adhesion by 1-butanol (in words) [5]: completely abolished; Antagonism of the effects of 3-methyl-1-butanol on cell adhesion (in words) [5]: abolished; Antagonism of the effects of ethanol on cell adhesion (in words) [5]: abolished; IC50 [5, 6]: 3.6 µM; IC50 ([5]; NG108-15, read-out: IC50 for antagonism of 1-butanol inhibition of cell-cell adhesion): 3.6 µM; Potency of antagonism relative to 1-pentanol ([5]; ratio of IC50 values): approximately 200 times; Antagonism of ethanol enhancement of GIRK ¼ potassium channel activity (GIRK ¼ potassium channel): did not antagonize |
| CCC(O)CC [3-pentanol] | 107 | – | 4.69 | – | – |
| CCCCCO [1-pentanol] | 108 | not inhibited | 5.02 | inactivity | Antagonism of inhibition of cell-cell adhesion by 1-butanol (in words) [5]: completely abolished; Antagonism of the effects of 3-methyl-1-butanol on cell adhesion (in words) [5]: abolished; Antagonism of the effects of ethanol on cell adhesion (in words) [5]: abolished; IC50 [5, 6]: 715 µM |
| OCc1ccccc1 [benzyl alcohol] | 104 | did not | 2.52 | – | – |
| C=CCCO [3-buten-1-ol] | 86 | abolished activity | 1.00 | inactivity | – |
| CC(C)(C)CCO [3,3-dimethyl-1-butanol] | 121 | did not reduce activity | 5.77 | – | Potency for inhibition of cell adhesion relative to 2-ethyl-1-butanol ([2]; IC50 comparison, FIG. 2): more than four times as potent |
| CC(C)CCO [3-methyl-1-butanol] | 109 | did not reduce activity | 2.89 | – | – |
| CC(C)CO [2-methyl-1-propanol] | 90 | active | 1.10 | – | – |
| OC1CCCC1 [cyclopentanol] | 92 | did not | 2.24 | inactivity | – |
| OC1CCC1 [cyclobutanol] | 78 | inhibited | 0.91 | – | – |
| CCCO [1-propanol] | – | active | – | – | – |
| CCC(CC)CO [2-ethyl-1-butanol] | 123 | did not reduce activity | 9.14 | – | – |
| B1 | – | – | – | – | Percentage of adherent NG108-15 cells ([2]; 48 hours, 10-20 ng/ml BMP-7, control 17.0±[…]): 50.0±1.4%; Percentage of cell clusters (NG108-15 cells; 0.1-40 ng/ml BMP-7, 3 days): dose-dependent increase |
